Measured values reported in patent US11993599B2, “Therapeutic compounds” (Genentech, Inc., priority 2021, dated 2024).

How the values were obtained:
BRG1 = target: T1, BRG1 (Homo sapiens, UniProt P51532); assay: Immunofluorescence assay for BRG1 degradation in SW1573 cells; type: cell-based; details: 20 hours incubation; for DC50: immunofluorescence mean nuclear signal, read-out: BRG1 IF Degradation IC50; for Dmax: SW1573, 20 h, normalized to a known degrader control, read-out: BRG1 IF Degradation Sinf (%)
T1 construct: either BRM primary antibody (Cell signaling Cat #11966) or BRG primary antibody (Abcam, ab 110641); endogenous in cells; host or cells: SW1573
T1 sequence (P51532 whole entry): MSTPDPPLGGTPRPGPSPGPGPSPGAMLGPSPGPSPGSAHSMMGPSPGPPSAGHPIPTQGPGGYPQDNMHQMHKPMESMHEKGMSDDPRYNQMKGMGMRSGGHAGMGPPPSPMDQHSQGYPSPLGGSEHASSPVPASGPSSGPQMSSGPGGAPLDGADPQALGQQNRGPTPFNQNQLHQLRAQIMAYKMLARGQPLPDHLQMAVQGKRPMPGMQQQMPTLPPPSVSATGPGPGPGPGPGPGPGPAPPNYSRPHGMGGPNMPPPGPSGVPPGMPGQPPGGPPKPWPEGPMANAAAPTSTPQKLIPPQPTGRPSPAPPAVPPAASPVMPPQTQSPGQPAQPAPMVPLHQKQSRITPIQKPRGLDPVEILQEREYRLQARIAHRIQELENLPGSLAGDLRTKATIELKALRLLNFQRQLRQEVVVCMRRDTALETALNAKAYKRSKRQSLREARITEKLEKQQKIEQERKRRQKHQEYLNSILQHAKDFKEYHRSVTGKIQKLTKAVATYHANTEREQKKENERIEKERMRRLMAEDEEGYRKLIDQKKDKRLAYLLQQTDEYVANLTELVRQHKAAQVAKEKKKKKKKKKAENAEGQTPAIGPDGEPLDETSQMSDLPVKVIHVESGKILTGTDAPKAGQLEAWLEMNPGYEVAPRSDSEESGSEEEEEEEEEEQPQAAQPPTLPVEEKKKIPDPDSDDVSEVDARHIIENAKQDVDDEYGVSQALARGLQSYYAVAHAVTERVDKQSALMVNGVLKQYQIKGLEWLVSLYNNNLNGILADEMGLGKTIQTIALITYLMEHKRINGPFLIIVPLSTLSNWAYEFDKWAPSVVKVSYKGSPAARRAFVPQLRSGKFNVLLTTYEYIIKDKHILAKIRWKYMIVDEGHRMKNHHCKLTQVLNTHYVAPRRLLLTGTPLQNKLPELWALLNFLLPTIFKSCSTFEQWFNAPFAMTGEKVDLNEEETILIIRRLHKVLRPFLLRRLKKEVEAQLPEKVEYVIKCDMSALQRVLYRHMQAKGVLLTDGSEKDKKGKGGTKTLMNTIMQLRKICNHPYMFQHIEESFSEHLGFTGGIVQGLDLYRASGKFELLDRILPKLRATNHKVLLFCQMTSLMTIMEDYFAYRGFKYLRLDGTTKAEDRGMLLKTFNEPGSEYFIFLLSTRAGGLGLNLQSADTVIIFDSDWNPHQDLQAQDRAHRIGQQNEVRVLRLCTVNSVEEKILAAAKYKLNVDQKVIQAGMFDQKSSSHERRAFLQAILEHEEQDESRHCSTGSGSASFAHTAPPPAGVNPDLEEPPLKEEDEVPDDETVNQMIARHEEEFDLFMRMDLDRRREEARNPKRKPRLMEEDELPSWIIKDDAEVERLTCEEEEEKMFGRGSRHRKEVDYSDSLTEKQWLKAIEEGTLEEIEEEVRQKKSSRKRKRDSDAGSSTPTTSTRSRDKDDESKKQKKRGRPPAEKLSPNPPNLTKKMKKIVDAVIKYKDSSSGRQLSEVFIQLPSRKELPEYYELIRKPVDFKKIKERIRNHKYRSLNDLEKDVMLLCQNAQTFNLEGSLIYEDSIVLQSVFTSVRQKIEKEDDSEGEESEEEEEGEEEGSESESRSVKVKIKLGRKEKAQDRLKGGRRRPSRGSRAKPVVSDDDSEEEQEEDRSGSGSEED
Outline: (§1)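 After a 20 h incubation with test compound, SW1573 cells are fixed and stained for BRM or BRG1 plus Hoechst. Per-cell mean nuclear intensity, referenced to a degrader control, is fit concentration-dependently with unconstrained maximum for Dmax.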

BRM = BRM (Homo sapiens, UniProt P51531); assay: Immunofluorescence assay for BRM degradation in SW1573 cells; type: cell-based; parameters: treated overnight at 4° C. with either BRM primary antibody (Cell signaling Cat #11966) or BRG primary antibody; endogenous in cells; host or cells: SW1573; details: 20 hours incubation; for DC50: immunofluorescence mean nuclear signal, read-out: BRM IF Degradation IC50; for BRM IF Degradation Sinf (%): normalized to a known degrader control
BRM, sequence (P51531 whole entry): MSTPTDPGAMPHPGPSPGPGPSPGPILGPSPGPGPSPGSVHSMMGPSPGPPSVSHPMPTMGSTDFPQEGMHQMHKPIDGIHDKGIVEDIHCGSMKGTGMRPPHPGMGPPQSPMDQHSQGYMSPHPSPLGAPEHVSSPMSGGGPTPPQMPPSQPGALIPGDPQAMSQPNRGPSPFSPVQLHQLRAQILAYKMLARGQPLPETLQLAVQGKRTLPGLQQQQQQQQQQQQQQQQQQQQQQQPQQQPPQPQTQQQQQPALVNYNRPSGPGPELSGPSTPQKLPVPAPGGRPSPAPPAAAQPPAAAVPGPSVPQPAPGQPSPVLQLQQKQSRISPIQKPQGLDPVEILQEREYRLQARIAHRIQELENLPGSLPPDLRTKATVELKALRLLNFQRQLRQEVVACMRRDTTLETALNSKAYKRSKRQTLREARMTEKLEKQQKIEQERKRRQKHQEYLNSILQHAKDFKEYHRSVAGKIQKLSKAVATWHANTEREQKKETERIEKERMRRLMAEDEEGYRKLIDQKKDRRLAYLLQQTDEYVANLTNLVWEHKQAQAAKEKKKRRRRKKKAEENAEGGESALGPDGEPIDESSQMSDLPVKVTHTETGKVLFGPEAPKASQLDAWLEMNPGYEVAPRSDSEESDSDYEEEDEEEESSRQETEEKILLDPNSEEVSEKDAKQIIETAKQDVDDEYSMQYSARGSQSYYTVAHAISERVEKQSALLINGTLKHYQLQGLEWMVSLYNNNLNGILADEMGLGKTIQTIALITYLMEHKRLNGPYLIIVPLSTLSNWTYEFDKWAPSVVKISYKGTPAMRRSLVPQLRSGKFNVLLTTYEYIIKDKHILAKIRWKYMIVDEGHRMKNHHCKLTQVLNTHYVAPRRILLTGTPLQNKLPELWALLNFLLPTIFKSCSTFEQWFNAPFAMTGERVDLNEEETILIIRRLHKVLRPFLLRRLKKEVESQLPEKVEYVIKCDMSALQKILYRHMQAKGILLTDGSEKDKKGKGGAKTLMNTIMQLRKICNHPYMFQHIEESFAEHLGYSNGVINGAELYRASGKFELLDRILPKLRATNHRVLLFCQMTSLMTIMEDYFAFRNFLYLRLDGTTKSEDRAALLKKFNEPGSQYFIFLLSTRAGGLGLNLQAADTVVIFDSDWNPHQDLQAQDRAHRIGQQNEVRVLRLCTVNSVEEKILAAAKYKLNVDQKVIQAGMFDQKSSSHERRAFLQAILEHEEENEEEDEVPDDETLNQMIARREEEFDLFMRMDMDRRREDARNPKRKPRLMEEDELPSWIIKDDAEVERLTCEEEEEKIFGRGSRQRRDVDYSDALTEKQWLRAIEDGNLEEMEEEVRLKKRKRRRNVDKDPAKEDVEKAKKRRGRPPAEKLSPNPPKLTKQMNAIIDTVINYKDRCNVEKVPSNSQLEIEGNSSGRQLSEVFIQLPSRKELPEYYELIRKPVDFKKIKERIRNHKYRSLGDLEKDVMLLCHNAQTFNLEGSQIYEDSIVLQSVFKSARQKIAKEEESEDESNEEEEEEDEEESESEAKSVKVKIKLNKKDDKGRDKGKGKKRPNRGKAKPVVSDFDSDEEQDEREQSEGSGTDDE
Outline: as §1

| Compound | DC50 (BRG1) [nM] | DC50 (BRM) [nM] | BRM IF Degradation Sinf (%) (BRM) | Dmax (BRG1) [%] |
| --- | --- | --- | --- | --- |
| CN(CC#Cc1cc(N2C3CCC2CN(c2cc(-c4ccccc4O)nnc2N)C3)ccn1)CC(=O)N1CCOCC1 [Compound 85, 2-[3-[4-[3-[3-amino-6-(2-hydroxyphenyl)pyridazin-4-yl]-3,8-diazabicyclo[3.2.1]octan-8-yl]-2-pyridyl]prop-2-ynyl-methyl-amino]-1-morpholino-ethanone] | > 100 | > 100 | E (E indicates −30%-−70%) | – |
| Nc1nnc(-c2ccccc2O)cc1N1CC2CCC(C1)N2c1ccnc(C#CCN2CC3CC2C3)c1 [Compound 86, 2-[6-amino-5-[8-[2-[3-(2-azabicyclo[2.1.1]hexan-2-yl)prop-1-ynyl]-4-pyridyl]-3,8-diazabicyclo[3.2.1]octan-3-yl]pyridazin-3-yl]phenol] | < 10 | < 10 | E (E indicates −30%-−70%) | 30 to 70 |
| Nc1nnc(-c2ccccc2O)cc1N1CC2CCC(C1)N2c1ccnc(C#CCN2CCC3CC32)c1 (stereo not drawn) [Compound 87, 2-[6-amino-5-[8-[2-[3-(2-azabicyclo[3.1.0]hexan-2-yl)prop-1-ynyl]-4-pyridyl]-3,8-diazabicyclo[3.2.1]octan-3-yl]pyridazin-3-yl]phenol] | < 10 | < 10 | E (E indicates −30%-−70%) | 30 to 70 |
| Nc1nnc(-c2ccccc2O)cc1N1CC2CCC(C1)N2c1ccnc(C#CCN2CCC3COCC3C2)c1 (stereo not drawn) [Compound 88, 2-[5-[8-[2-[3-(3,3a,4,6,7,7a-hexahydro-1H-furo[3,4-c]pyridin-5-yl)prop-1-ynyl]-4-pyridyl]-3,8-diazabicyclo[3.2.1]octan-3-yl]-6-amino-pyridazin-3-yl]phenol] | < 10 | < 10 | E (E indicates −30%-−70%) | 0 to 30 |
| CNC(=O)C1COCCN1CC#Cc1cc(N2C3CCC2CN(c2cc(-c4ccccc4O)nnc2N)C3)ccn1 (stereo not drawn) [Compound 89, 4-[3-[4-[3-[3-amino-6-(2-hydroxyphenyl)pyridazin-4-yl]-3,8-diazabicyclo[3.2.1]octan-8-yl]-2-pyridyl]prop-2-ynyl]-N-methyl-morpholine-3-carboxamide] | > 100 | 10 to 100 | E (E indicates −30%-−70%) | – |
| Nc1nnc(-c2ccccc2O)cc1N1CC2CCC(C1)N2c1ccnc(C#CCN2CCC[C@@H]3OCC[C@@H]32)c1 [Compound 90, 2-[5-[8-[2-[3-[(3aS,7aS)-3,3a,5,6,7,7a-hexahydro-2H-furo[3,2-b]pyridin-4-yl]prop-1-ynyl]-4-pyridyl]-3,8-diazabicyclo[3.2.1]octan-3-yl]-6-amino-pyridazin-3-yl]phenol] | 10 to 100 | 10 to 100 | E (E indicates −30%-−70%) | 0 to 30 |
| Nc1nnc(-c2ccccc2O)cc1N1CC2CCC(C1)N2c1ccnc(C#CCN2CC3CCC3C2)c1 (stereo not drawn) [Compound 91, 2-[6-amino-5-[8-[2-[3-(3-azabicyclo[3.2.0]heptan-3-yl)prop-1-ynyl]-4-pyridyl]-3,8-diazabicyclo[3.2.1]octan-3-yl]pyridazin-3-yl]phenol] | < 10 | < 10 | E (E indicates −30%-−70%) | 30 to 70 |
| Nc1nnc(-c2ccccc2O)cc1N1CC2CCC(C1)N2c1ccnc(C#CCN2CC3CCOCC3C2)c1 (stereo not drawn) [Compound 92, 2-[5-[8-[2-[3-(3,3a,4,6,7,7a-hexahydro-1H-pyrano[3,4-c]pyrrol-2-yl)prop-1-ynyl]-4-pyridyl]-3,8-diazabicyclo[3.2.1]octan-3-yl]-6-amino-pyridazin-3-yl]phenol] | < 10 | < 10 | F (F indicates −71%-−120%) | 30 to 70 |
| Nc1nnc(-c2ccccc2O)cc1N1CC2CCC(C1)N2c1ccnc(C#CCN2CC3CCC(C3)C2)c1 [Compound 93, 2-[6-amino-5-[8-[2-[3-(3-azabicyclo[3.2.1]octan-3-yl)prop-1-ynyl]-4-pyridyl]-3,8-diazabicyclo[3.2.1]octan-3-yl]pyridazin-3-yl]phenol] | > 100 | < 10 | E (E indicates −30%-−70%) | – |
| Nc1nnc(-c2ccccc2O)cc1N1CC2CCC(C1)N2c1ccnc(C#CCN2CCC3CCCC32)c1 (stereo not drawn) [Compound 94, 2-[5-[8-[2-[3-(3,3a,4,5,6,6a-hexahydro-2H-cyelopenta[b]pyrrol-1-yl)prop-1-ynyl]-4-pyridyl]-3,8-diazabicyclo[3.2.1]octan-3-yl]-6-amino-pyridazin-3-yl]phenol] | < 10 | < 10 | E (E indicates −30%-−70%) | 30 to 70 |
| Nc1nnc(-c2ccccc2O)cc1N1CC2CCC(C1)N2c1ccnc(C#CCN2CC(C(F)F)C2)c1 [Compound 95, 2-[6-amino-5-[8-[2-[3-[3-(difluoromethyl)azetidin-1-yl]prop-1-ynyl]-4-pyridyl]-3,8-diazabicyclo[3.2.1]octan-3-yl]pyridazin-3-yl]phenol] | < 10 | < 10 | E (E indicates −30%-−70%) | 30 to 70 |
| CNC(=O)C1CCCCN1CC#Cc1cc(N2C3CCC2CN(c2cc(-c4ccccc4O)nnc2N)C3)ccn1 (stereo not drawn) [Compound 96, 1-[3-[4-[3-[3-amino-6-(2-hydroxyphenyl)pyridazin-4-yl]-3,8-diazabicyclo[3.2.1]octan-8-yl]-2-pyridyl]prop-2-ynyl]-N-methyl-piperidine-2-carboxamide] | 10 to 100 | > 100 | E (E indicates −30%-−70%) | 0 to 30 |
| Nc1nnc(-c2ccccc2O)cc1N1CC2CCC(C1)N2c1ccnc(C#CCN2CC3(CC(F)C3)C2)c1 [Compound 97, 2-[6-amino-5-[8-[2-[3-(6-fluoro-2-azaspiro[3.3]heptan-2-yl)prop-1-ynyl]-4-pyridyl]-3,8-diazabicyclo[3.2.1]octan-3-yl]pyridazin-3-yl]phenol] | < 10 | < 10 | F (F indicates −71%-−120%) | 30 to 70 |
| Nc1nnc(-c2ccccc2O)cc1N1CC2CCC(C1)N2c1ccnc(C#CCN2CC3COC(C3)C2)c1 (stereo not drawn) [Compound 98, 2-[6-amino-5-[8-[2-[3-(6-oxa-3-azabicyclo[3.2.1]octan-3-yl)prop-1-ynyl]-4-pyridyl]-3,8-diazabicyclo[3.2.1]octan-3-yl]pyridazin-3-yl]phenol] | > 100 | 10 to 100 | E (E indicates −30%-−70%) | – |
| Nc1nnc(-c2ccccc2O)cc1N1CC2CCC(C1)N2c1ccnc(C#CCN2CCCC3(CC3)C2)c1 [Compound 99, 2-[6-amino-5-[8-[2-[3-(5-azaspiro[2.5]octan-5-yl)prop-1-ynyl]-4-pyridyl]-3,8-diazabicyclo[3.2.1]octan-3-yl]pyridazin-3-yl]phenol] | < 10 | < 10 | E (E indicates −30%-−70%) | 30 to 70 |
| Nc1nnc(-c2ccccc2O)cc1N1CC2CCC(C1)N2c1ccnc(C#CCN2CCC23CCCOC3)c1 (stereo not drawn) [Compound 100, 2-[6-amino-5-[8-[2-[3-(8-oxa-1-azaspiro[3.5]nonan-1-yl)prop-1-ynyl]-4-pyridyl]-3,8-diazabicyclo[3.2.1]octan-3-yl]pyridazin-3-yl]phenol] | < 10 | < 10 | E (E indicates −30%-−70%) | 30 to 70 |
| Nc1nnc(-c2ccccc2O)cc1N1CC2CCC(C1)N2c1ccnc(C#CCN2CC3CCCC(C2)O3)c1 [Compound 101, 2-[6-amino-5-[8-[2-[3-(9-oxa-3-azabicyclo[3.3.1]nonan-3-yl)prop-l-ynyl]-4-pyridyl]-3,8-diazabicyclo[3.2.1]octan-3-yl]pyridazin-3-yl]phenol] | > 100 | 10 to 100 | E (E indicates −30%-−70%) | – |
| Nc1nnc(-c2ccccc2O)cc1N1CC2CCC(C1)N2c1ccnc(C#CCN2CCC[C@@H]3CC[C@@H]32)c1 [Compound 102, 2-[6-amino-5-[8-[2-[3-[(1S,6R)-2-azabicyclo[4.2.0]octan-2-yl]prop-1-ynyl]-4-pyridyl]-3,8-diazabicyclo[3.2.1]octan-3-yl]pyridazin-3-yl]phenol] | < 10 | < 10 | E (E indicates −30%-−70%) | 30 to 70 |
| Nc1nnc(-c2ccccc2O)cc1N1CC2CCC(C1)N2c1ccnc(C#CCN2C3CCC(C3)C2CO)c1 (stereo not drawn) [Compound 103, 2-[6-amino-5-[8-[2-[3-[3-(hydroxymethyl)-2-azabicyclo[2.2.1]heptan-2-yl]prop-1-ynyl]-4-pyridyl]-3,8-diazabicyclo[3.2.1]octan-3-yl]pyridazin-3-yl]phenol] | > 100 | < 10 | E (E indicates −30%-−70%) | 30 to 70 |
| Nc1nnc(-c2ccccc2O)cc1N1CC2CCC(C1)N2c1ccnc(C#CCN2CCC3CC2CO3)c1 (stereo not drawn) [Compound 104, 2-[6-amino-5-[8-[2-[3-(6-oxa-2-azabicyclo[3.2.1]octan-2-yl)prop-1-ynyl]-4-pyridyl]-3,8-diazabicyclo[3.2.1]octan-3-yl]pyridazin-3-yl]phenol] | < 10 | < 10 | E (E indicates −30%-−70%) | 0 to 30 |
